Assay results: patent publication US7414023B2, “Peptide ligands for prostate specific antigen” (Licentia Ltd., priority 2000, dated 2008)
Bridge positions count the residues as written; N and C are the ends. Peptide text beside a SMILES is read from it.

Key:
[1] = target: T1, PSA (Homo sapiens, UniProt P07288); assay: Proteolytic cleavage of IGF-BP-3 by PSA, IGF-BP-3 IFMA; assay type: biochemical; set-up: PSA was purified from human seminal fluid as described previously (3); from tissue; host or cells: human seminal fluid; details: PSA 5 μg/mL, 100-fold molar excess of synthetic peptide, IGF-BP-3 70 ng/mL, 16 h at 37° C.; PSA alone 30%
Experimental: The extent of the cleavage of the substrate was quantitated by monitoring the decrease in IGF-BP-3 immunoreactivity due to proteolytic cleavage of it. PSA (5 μg/mL) was incubated with IGF-BP-3 (70 ng/mL) for 16 h at 37° C. with 100-fold molar excess of peptides to PSA and measured for IGF-BP3 immunoreactivity by IFMA as described (33). As control, the peptide was also added to the reaction mixture containing PSA and IGF-BP3 just before starting the immunoassay to quantify the possible interference of the peptide in the IFMA for IGF-BP-3.
In the experiments, PSA (5 μg/mL) in TBS buffer, pH 7.8 alone or with 100-fold molar excess of peptide was incubated with IGF-BP-3 (70 ng/mL) for 16 h at 37° C., after which the concentration of intact IGF-BP-3 was determined by IFMA.

[2] = target: T1, PSA; assay: Surface plasmon resonance, GST-peptides on PSA captured by MAb H117; assay type: binding; set-up: PSA was purified from human seminal fluid as described previously (3); from tissue; host or cells: human seminal fluid
Experimental: The binding kinetics of selected peptides to PSA was studied by surface plasmon resonance (29) on a BIAcore 2000™ instrument (Biacore AB, Uppsala, Sweden). PSA was captured to the solid phase by MAb H117 which binds to the same epitope as MAb 5E4 (30). The capture antibody was covalently coupled onto the surface of the CM5 sensor chip according to the manufacturer's instructions, using coupling levels of 5000 resonance units (RU). PSA was captured by injection of 416 nM of PSA in PBS, 4-min contact time (5 μl/min) and 60 min wash (20 μl/min) providing ligand levels in the range 500-600 RUs. Each analyte (GST-peptide), at various concentrations, was injected for 1 min at 20 μl/min flow rate. […] PSA-binding to either chemically activated/deactivated blank surface or MAb H117 alone was subtracted as a non-specific interaction. Regeneration after each measurement cycle was done with 3×0.5 min injections of 10 mM HCl. Binding data were analyzed using the BIAEVALUATION software.
The association rate constat (ka), dissociation rate constant (kd) and equilibrium dissociation constant (KD) for GST-peptides to PSA were measured by surface plasmon resonance. […]
The binding kinetics and affinity of the peptides to PSA was estimated by surface plasmon resonance. Increasing concentrations of GST-peptides were injected over PSA captured by MAb H117. Background-corrected sensorgrams were fitted to single-site interaction between GST-peptide and PSA using three different GST-peptide concentrations and the rate equation: d(GST-peptide:PSA)/dt=ka(GST-peptide)×(PSA)−kd(GST-peptide:PSA).

[3] = average at 3 analyte concentrations
[4] = zinc 0 μM, average of 3 fits, analyte 3.4-8.5 μM
[5] = zinc 1 μM, single fit, 3.4 μM peptide
[6] = zinc 10 μM, single fit, 3.4 μM peptide
[7] = zinc 30 μM, single fit, 3.4 μM peptide

T1 sequence (P07288 25-261): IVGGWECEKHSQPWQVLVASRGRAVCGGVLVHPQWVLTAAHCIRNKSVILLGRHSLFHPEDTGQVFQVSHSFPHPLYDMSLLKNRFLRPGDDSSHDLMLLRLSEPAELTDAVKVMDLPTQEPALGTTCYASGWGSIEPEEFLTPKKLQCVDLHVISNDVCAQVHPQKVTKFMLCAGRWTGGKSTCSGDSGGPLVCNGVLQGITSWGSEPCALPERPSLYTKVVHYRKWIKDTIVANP

Row | cleavage of IGF-BP-3 by PSA in the presence of peptide [1] | ka × 10^3 (1/Ms) [2, 3] | kd × 10^−3 (1/s) [2, 3] | Kd [2, 4] [µM] | ka × 10^3 (1/Ms) [2, 4] | kd × 10^−3 (1/s) [2, 4] | increase (fold) of affinity ([2]; zinc 1 μM versus 0 μM) [fold] | ka × 10^3 (1/Ms) [2, 5] | kd × 10^−3 (1/s) [2, 5] | increase (fold) of affinity ([2]; zinc 10 μM versus 0 μM) [fold] | ka × 10^3 (1/Ms) [2, 6] | kd × 10^−3 (1/s) [2, 6] | increase (fold) of affinity ([2]; zinc 30 μM versus 0 μM) [fold] | Kd [2, 7] [µM] | ka × 10^3 (1/Ms) [2, 7] | kd × 10^−3 (1/s) [2, 7] | Compound
1 | about 70% | 10.3 × 10^3 1/Ms | 80 × 10^−3 1/s | 7.8 | 10.3 × 10^3 1/Ms | 80 × 10^−3 1/s | 3 | 1.8 × 10^3 1/Ms | 4.7 × 10^−3 1/s | 5.9 | 1.2 × 10^3 1/Ms | 1.6 × 10^−3 1/s | 7.7 | 1 | 1.9 × 10^3 1/Ms | 2.0 × 10^−3 1/s | CVFTSDYAFC [Peptide A-1]
2 | – | – | 57 × 10^−3 1/s | – | – | 57 × 10^−3 1/s | – | – | 3.5 × 10^−3 1/s | 6 | – | 1.6 × 10^−3 1/s | 4.7 | – | – | 0.6 × 10^−3 1/s | CC(C)C[C@@H]1NC(=O)[C@H](Cc2ccc(O)cc2)NC(=O)[C@H](CC(=O)O)NC(=O)[C@H](Cc2ccc(O)cc2)NC(=O)[C@H](CC(N)=O)NC(=O)[C@H](Cc2c[nH]cn2)NC(=O)[C@H](C)NC(=O)[C@H](Cc2ccccc2)NC(=O)[C@H](C(C)C)NC(=O)[C@@H](N)CSSC[C@@H](C(=O)O)NC(=O)[C@H](C(C)C)NC1=O [Peptide B-2] (H-CVFAHNYDYLVC-OH; disulfide 1-12; N-terminus assumed)
